{"source": "paper PMC9230870", "about": "“Investigation of the Uptake and Transport of Two Novel Camptothecin Derivatives in Caco-2 Cell Monolayers” (Molecules, 2022)", "key": {"HCT 116": {"test_system": "HCT 116", "test": "MTT cytotoxicity assay, HCT 116", "assay_type": "cell-based", "conditions": "HCT 116, MTT, 72 h, mean ± SD (n = 3)", "method": "(§1) HCT 116, HeLa, A549, Hep G2, and Caco-2 cell lines were obtained from the China Center for Type Culture Collection, CCTCC (Wuhan, China). They were cultured in DMEM, including 10% FBS, 1% penicillin (l00 μg/mL), and 1% streptomycin (l00 μg/mL), in a constant temperature incubator at 37 °C with 5% CO2.\n(§2) The cytotoxicity of FL118, FL77-28, and FL77-29 against HCT116, HeLa, A549 HepG2, and Caco-2 cell lines were measured using MTT assays. The cells were plated into 96-well plates at a density of 2 × 10^4 cells/mL and cultured for 24 h. Next, the cells were treated with 0.0125–0.500 μM of FL118, FL77-28, and FL77-29 for 4 h or 72 h. After incubation with 20 µL of 5 mg/mL MTT solution for 4 h, the supernatant was gently discarded and 150 µL of DMSO was added to dissolve the formazan crystals. Finally, the absorbance was measured at 570 nm and the background was subtracted at 630 nm using an ELISA Plate Reader."}, "Hep G2": {"test_system": "Hep G2", "test": "MTT cytotoxicity assay, Hep G2", "assay_type": "cell-based", "conditions": "72 h, mean ± SD (n = 3)", "method": "as §1, §2"}, "A549": {"test_system": "A549", "test": "MTT cytotoxicity assay, A549", "assay_type": "cell-based", "conditions": "72 h, mean ± SD (n = 3)", "method": "as §1, §2"}, "HeLa": {"test_system": "HeLa", "test": "MTT cytotoxicity assay, HeLa", "assay_type": "cell-based", "conditions": "72 h, mean ± SD (n = 3)", "method": "as §1, §2"}, "Caco-2 cells [1]": {"test_system": "Caco-2 cells", "method": "as §1\nas §2, with “Next, the cells were treated with 0.0125–0.500 μM of FL118, FL77-28, and FL77-29 for 4 h or 72 h.” left out"}, "Caco-2 cell monolayers": {"test_system": "Caco-2 cell monolayers", "test": "Transport across Caco-2 cell monolayers", "assay_type": "in vitro ADME", "conditions": "for Papp AP-BL / efflux ratio (ER) = Papp BL-AP/Papp AP-BL: 1.0 μM; for Papp AP-BL: AP FaSSIF pH 6.5, BL HBSS pH 7.4; for efflux ratio (ER) = Papp BL-AP/Papp AP-BL: Caco-2 monolayer", "method": "When Caco-2 cells reached 80–90% confluence in T-25 flasks, the cells were digested, centrifuged, and resuspended. After seeding at a density of 2 × 10^5 cells/well onto the apical of the Transwell® plate, 0.5 mL of 10% DMEM was added into the apical (AP) chamber and 1.5 mL of 10% DMEM was added into the basolateral (BL) chamber. The buffer was refreshed every two days, and after one week it was refreshed daily and incubated until 21 days.\nThe integrity of the Caco-2 cell monolayer was evaluated by measuring the transepithelial electrical resistance (TEER) and the permeability of Lucifer yellow (LY). The TEER was measured using Millicell® ERS-2 voltameter (Bedford, USA). The Caco-2 cell model was used for the transport of FL77-28 and FL77-29 when the TEER values exceeded 300 Ω/cm^2. The TEER value was also measured at the end of the transport experiment. In addition, the permeability of LY, a paracellular transport marker, was also measured for the tightness of epithelial cells. […] Then, the fluorescence of samples was measured at excitation/emission wavelengths of 492/520 nm using the ELISA Plate.\nBefore the transport studies, the Caco-2 cell monolayers were washed twice with warm HBSS containing 15 mM glucose, 10 mM HEPES, and 1% BSA (pH 7.4) and pre-incubated for 30 min at 37 °C [26]. Next, HBSS was discarded and replaced with 0.5/1.0 µM of FL77-28 and FL77-29 dissolved in a different buffer on one side of the cell layer, 0.5 mL for the AP side and 1.5 mL for the BL side. The buffer at the AP was FaSSIF (pH 6.5) and the buffer at the BL was HBSS. Then, the monolayers were incubated at 37 °C. A sample aliquot of 0.5 mL (AP-BL) or 0.25 mL (BL-AP) was taken from the receiving compartment at different time points (120, 150, 180, 210, and 240 min) and then replaced with an equal volume of fresh pre-warmed buffer. The concentrations of FL77-28 and FL77-29 in the sample were determined by HPLC.\n(§3) Using the Shimadzu HPLC system (Shimadzu, Kyoto, Japan), the samples taken from the uptake experiment and the transport studies were eluted on a C18 reverse-phase column (250 mm × 4.6 mm, 5 μm, Elite, Dalian). The column was maintained at 40 °C and the absorbance detector wavelength was 365 nm. The mobile phase used for FL118, FL77-28, and FL77-29 consisted of acetonitrile: 0.1% formic acid (40:60, v/v), (60:40, v/v), and (65:35, v/v). The flow rate was 1.0 mL/min, and the injection volume was 20 μL. The retention times of FL118, FL77-28, and FL77-29 were 6.109 min (Figure 1A), 8.456 min (Figure 1B), and 6.351 min (Figure 1C), respectively. Calibration curves were constructed over a concentration range of 0.03–1.00 μM. […] The concentration of FL118, FL77-28, and FL77-29 was determined according to the typical equations.\nThe concentration of each sample was measured by HPLC. The Papp of FL77-28 and FL77-29 was calculated according to the following equation:Papp (cm/s) = V/(C0·A)·(ΔQ/Δt)(1) where V (cm^3) is the volume of the receiver compartment, A is the monolayer surface area of the Transwell insert (1.12 cm^2), C0 is the initial drug concentration in the donor compartment, and (ΔQ/Δt) is the transport rate.\nThe efflux ratio (ER) was calculated using the following equation:ER = Papp BL-AP/Papp AP-BL(2)"}, "Caco-2 cells [2]": {"test_system": "Caco-2 cells", "test": "Cellular uptake in Caco-2 cells, effect of temperature", "assay_type": "in vitro ADME", "conditions": "4 °C versus 37 °C, 4 h, 0.2-1.0 μM", "method": "(§4) Caco-2 cells were plated in a 6-well plate at a density of 2 × 10^5 cells/well and cultured at 37 °C. After reaching 80% confluence, Caco-2 cells could be used in the uptake experiments. Next, the cells were washed twice with HBSS and pre-incubated with HBSS or 1 µM Verapamil or Gefitinib for 30 min. After pre-incubation, the drug-free HBSS was replaced by FaSSIF containing FL118, FL77-28, or FL77-29 (0.2, 0.4, 0.6, 0.8, and 1.0 μM), and then incubated for 4 h at 37 °C or 4 °C, respectively. Next, the cells were collected and lysed by freezing and thawing three times. Then, the cells were sonicated and centrifuged at 10,000 rpm for 10 min. Finally, the supernatants were used to measure concentrations of compounds and proteins by HPLC and Bradford methods.\nas §3"}, "BCRP [3]": {"biological_target": "T1, BCRP (Homo sapiens, UniProt Q9UNQ0)", "T1 construct": "endogenous in cells; host or cells: Caco-2", "T1 sequence (Q9UNQ0 1-655)": "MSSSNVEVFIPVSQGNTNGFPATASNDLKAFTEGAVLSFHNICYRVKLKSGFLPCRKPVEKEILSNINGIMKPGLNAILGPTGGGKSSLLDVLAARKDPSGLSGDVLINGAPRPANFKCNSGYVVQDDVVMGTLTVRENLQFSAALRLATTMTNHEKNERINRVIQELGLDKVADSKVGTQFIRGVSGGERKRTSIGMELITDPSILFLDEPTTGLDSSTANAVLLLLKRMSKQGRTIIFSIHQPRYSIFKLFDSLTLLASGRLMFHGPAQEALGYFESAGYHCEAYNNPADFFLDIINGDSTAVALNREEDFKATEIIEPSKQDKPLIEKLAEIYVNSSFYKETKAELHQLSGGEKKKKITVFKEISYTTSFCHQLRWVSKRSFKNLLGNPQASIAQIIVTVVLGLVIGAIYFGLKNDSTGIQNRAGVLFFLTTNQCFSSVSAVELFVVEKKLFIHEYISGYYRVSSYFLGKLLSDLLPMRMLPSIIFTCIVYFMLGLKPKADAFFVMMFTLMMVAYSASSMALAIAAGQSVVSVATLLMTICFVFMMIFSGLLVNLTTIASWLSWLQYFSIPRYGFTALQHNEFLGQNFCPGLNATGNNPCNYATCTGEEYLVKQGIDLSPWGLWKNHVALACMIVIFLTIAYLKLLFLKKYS", "test": "Cellular uptake in Caco-2 cells with BCRP inhibitor Gefitinib", "assay_type": "in vitro ADME", "conditions": "1 µM Gefitinib pre-incubation 30 min, 0.2-1.0 μM, 37 °C, 4 h", "method": "as §4, §3"}, "P-gp [4]": {"biological_target": "T2, P-gp (Homo sapiens, UniProt P08183)", "T2 sequence (P08183 whole entry)": "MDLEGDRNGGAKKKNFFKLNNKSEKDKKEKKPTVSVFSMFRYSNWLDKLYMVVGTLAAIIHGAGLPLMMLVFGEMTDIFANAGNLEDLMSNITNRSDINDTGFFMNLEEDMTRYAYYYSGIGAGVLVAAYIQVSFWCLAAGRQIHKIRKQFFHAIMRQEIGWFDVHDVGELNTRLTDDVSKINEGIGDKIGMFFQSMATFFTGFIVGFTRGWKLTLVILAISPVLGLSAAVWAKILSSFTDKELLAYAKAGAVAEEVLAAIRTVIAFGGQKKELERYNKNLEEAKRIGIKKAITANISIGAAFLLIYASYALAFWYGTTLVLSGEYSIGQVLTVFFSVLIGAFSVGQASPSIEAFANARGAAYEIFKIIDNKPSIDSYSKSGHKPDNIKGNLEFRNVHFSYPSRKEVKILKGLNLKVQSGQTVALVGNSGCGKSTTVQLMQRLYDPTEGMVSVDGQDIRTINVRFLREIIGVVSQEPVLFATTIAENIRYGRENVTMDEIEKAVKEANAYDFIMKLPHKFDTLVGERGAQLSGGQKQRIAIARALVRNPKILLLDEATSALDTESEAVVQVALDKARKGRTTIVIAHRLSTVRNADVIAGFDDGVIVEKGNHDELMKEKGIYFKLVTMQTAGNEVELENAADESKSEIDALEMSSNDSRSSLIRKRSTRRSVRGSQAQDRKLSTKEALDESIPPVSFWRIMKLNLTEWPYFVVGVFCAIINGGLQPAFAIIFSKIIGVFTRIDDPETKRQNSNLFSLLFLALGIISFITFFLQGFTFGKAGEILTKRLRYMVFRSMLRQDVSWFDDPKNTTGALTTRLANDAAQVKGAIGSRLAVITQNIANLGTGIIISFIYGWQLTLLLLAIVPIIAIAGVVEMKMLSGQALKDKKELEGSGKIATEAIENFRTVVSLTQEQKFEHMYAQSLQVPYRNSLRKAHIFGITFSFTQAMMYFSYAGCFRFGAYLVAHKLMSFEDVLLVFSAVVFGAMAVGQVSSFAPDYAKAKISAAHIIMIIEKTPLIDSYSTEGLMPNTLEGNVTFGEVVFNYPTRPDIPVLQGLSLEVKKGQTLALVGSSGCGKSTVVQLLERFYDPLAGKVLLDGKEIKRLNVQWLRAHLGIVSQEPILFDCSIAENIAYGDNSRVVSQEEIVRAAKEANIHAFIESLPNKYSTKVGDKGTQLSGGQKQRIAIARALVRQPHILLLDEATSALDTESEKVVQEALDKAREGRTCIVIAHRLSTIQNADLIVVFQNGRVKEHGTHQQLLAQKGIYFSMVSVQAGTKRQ", "test": "Cellular uptake in Caco-2 cells with P-gp inhibitor Verapamil", "assay_type": "in vitro ADME", "design": "endogenous in cells; host or cells: Caco-2", "conditions": "1 µM Verapamil pre-incubation 30 min, 0.2-1.0 μM, 37 °C, 4 h", "method": "as §4, §3"}, "BCRP [5]": {"biological_target": "T1, BCRP", "conditions": "cited from earlier work"}, "P-gp [6]": {"biological_target": "T2, P-gp", "conditions": "cited from earlier work"}, "[7]": {"conditions": "Caco-2 cells, 0.2 to 1.0 μM, 4 h, MTT"}}, "note": "Like-named read-outs stand apart in the source and are kept apart here.", "data": [{"compound": "CC[C@@]1(O)C(=O)OCc2c1cc1n(c2=O)Cc2c-1nc1cc3c(cc1c2-c1ccc(F)c(C)c1)OCO3", "note": "[FL77-29, 7-(4-Fluoro-3-methylphenyl)-10,11-methylenedioxy-20(S)-CPT]", "values": [{"measurement": "IC50", "setting": "HCT 116", "value": "25 ± 3", "unit": "nM"}, {"measurement": "IC50", "setting": "Hep G2", "value": "34 ± 2", "unit": "nM"}, {"measurement": "IC50", "setting": "A549", "value": "28 ± 4", "unit": "nM"}, {"measurement": "IC50", "setting": "HeLa", "value": "36 ± 4", "unit": "nM"}, {"measurement": "cell viability", "setting": "Caco-2 cells [1]; [7]", "value": "above 90%"}, {"measurement": "Papp AP-BL", "setting": "Caco-2 cell monolayers; 37 °C", "value": "2.48 ± 0.18 × 10^−6 cm/s"}, {"measurement": "efflux ratio (ER) = Papp BL-AP/Papp AP-BL", "setting": "Caco-2 cell monolayers", "value": 1.40}, {"measurement": "effect of temperature on cellular uptake", "setting": "Caco-2 cells [2]", "value": "incubation at 4 °C significantly increased the cellar uptake"}, {"measurement": "substrate of BCRP (uptake with Gefitinib)", "setting": "BCRP [3]", "value": "not a substrate for BCRP"}, {"measurement": "substrate of P-gp (uptake with Verapamil)", "setting": "P-gp [4]", "value": "mediated by P-gp"}]}, {"compound": "CC[C@@]1(O)C(=O)OCc2c1cc1n(c2=O)Cc2cc3cc4c(cc3nc2-1)OCO4", "note": "[FL118, 10,11-methylenedioxy-20(S)-CPT, reference compound]", "values": [{"measurement": "IC50", "setting": "HCT 116", "value": "50 ± 4", "unit": "nM"}, {"measurement": "IC50", "setting": "Hep G2", "value": "104 ± 2", "unit": "nM"}, {"measurement": "IC50", "setting": "A549", "value": "43 ± 4", "unit": "nM"}, {"measurement": "IC50", "setting": "HeLa", "value": "40 ± 3", "unit": "nM"}, {"measurement": "cell viability", "setting": "Caco-2 cells [1]", "value": "above 90%"}, {"measurement": "effect of temperature on cellular uptake", "setting": "Caco-2 cells [2]", "value": "no significant effect"}, {"measurement": "substrate of BCRP (uptake with Gefitinib)", "setting": "BCRP [3]", "value": "not substrates of P-gp or BCRP"}, {"measurement": "substrate of BCRP", "setting": "BCRP [5]", "value": "not being a substrate for P-gp or BCRP"}, {"measurement": "substrate of P-gp", "setting": "P-gp [6]", "value": "not being a substrate for P-gp"}, {"measurement": "substrate of P-gp (uptake with Verapamil)", "setting": "P-gp [4]", "value": "not substrates of P-gp"}]}, {"compound": "CC[C@@]1(O)C(=O)OCc2c1cc1n(c2=O)Cc2c-1nc1cc3c(cc1c2-c1ccc(C)c(F)c1)OCO3", "note": "[FL77-28, 7-(3-Fluoro-4-methylphenyl)-10,11-methylenedioxy-20(S)-CPT]", "values": [{"measurement": "IC50", "setting": "HCT 116", "value": "45 ± 14", "unit": "nM"}, {"measurement": "IC50", "setting": "Hep G2", "value": "65 ± 1", "unit": "nM"}, {"measurement": "IC50", "setting": "A549", "value": "48 ± 7", "unit": "nM"}, {"measurement": "IC50", "setting": "HeLa", "value": "22 ± 7", "unit": "nM"}, {"measurement": "cell viability", "setting": "Caco-2 cells [1]; [7]", "value": "above 90%"}, {"measurement": "Papp AP-BL", "setting": "Caco-2 cell monolayers; 37 °C", "value": "2.32 ± 0.04 × 10^−6 cm/s"}, {"measurement": "efflux ratio (ER) = Papp BL-AP/Papp AP-BL", "setting": "Caco-2 cell monolayers", "value": 1.14}, {"measurement": "effect of temperature on cellular uptake", "setting": "Caco-2 cells [2]", "value": "no significant effect"}, {"measurement": "substrate of BCRP (uptake with Gefitinib)", "setting": "BCRP [3]", "value": "not substrates of P-gp or BCRP"}, {"measurement": "substrate of P-gp (uptake with Verapamil)", "setting": "P-gp [4]", "value": "not substrates of P-gp"}]}, {"compound": "Lucifer yellow [LY, reference compound]", "values": [{"measurement": "Papp of LY (monolayer integrity marker)", "setting": "Caco-2 cell monolayers; 20 µg/mL, 2 h, 37 °C", "value": "0.57 ± 0.14 × 10^−6 cm/s"}]}]}
